Source: publication PMC10311525, “Restricting Promiscuity of Plant Flavonoid 3′-Hydroxylase and 4′-O-Methyltransferase Improves the Biosynthesis of (2S)-Hesperetin in E. coli” (Journal of Agricultural and Food Chemistry, 2023)

How the values were obtained:
Assay in all cases: whole-cell conversion, HPLC
Assay type in all cases: cell-based
[1] = molecular target: T1, trThF3′H with CPR (Tricyrtis hirta, UniProt B9A9Y6); conditions: 100 mg/L fed, 12 h, 23 °C; product (2S)-eriodictyol; full-length CPR co-expressed
T1 construct: gene F3'H; 24-aa N-terminally truncated F3'H co-expressed with full-length Arabidopsis thaliana CPR from pETDuet-1 (pGH10) in E. coli BL21(DE3); whole-cell conversion; with NADPH--cytochrome P450 reductase 2 (Arabidopsis thaliana)
T1 sequence (B9A9Y6 25-505): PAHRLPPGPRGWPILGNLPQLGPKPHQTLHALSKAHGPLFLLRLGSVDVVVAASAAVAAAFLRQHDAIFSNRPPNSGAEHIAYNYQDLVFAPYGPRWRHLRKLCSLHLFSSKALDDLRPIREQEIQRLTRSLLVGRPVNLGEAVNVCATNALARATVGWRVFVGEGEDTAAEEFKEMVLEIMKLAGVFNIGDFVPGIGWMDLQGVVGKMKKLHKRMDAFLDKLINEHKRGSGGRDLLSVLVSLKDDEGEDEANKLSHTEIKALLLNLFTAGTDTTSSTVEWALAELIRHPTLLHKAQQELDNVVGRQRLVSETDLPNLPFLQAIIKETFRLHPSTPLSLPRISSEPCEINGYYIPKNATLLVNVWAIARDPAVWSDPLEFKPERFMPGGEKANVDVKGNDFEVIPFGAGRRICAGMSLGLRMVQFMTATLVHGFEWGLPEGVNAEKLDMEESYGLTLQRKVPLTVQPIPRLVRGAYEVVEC
T1 sequence (Q9SUM3 whole entry partner, the tested form may be a part): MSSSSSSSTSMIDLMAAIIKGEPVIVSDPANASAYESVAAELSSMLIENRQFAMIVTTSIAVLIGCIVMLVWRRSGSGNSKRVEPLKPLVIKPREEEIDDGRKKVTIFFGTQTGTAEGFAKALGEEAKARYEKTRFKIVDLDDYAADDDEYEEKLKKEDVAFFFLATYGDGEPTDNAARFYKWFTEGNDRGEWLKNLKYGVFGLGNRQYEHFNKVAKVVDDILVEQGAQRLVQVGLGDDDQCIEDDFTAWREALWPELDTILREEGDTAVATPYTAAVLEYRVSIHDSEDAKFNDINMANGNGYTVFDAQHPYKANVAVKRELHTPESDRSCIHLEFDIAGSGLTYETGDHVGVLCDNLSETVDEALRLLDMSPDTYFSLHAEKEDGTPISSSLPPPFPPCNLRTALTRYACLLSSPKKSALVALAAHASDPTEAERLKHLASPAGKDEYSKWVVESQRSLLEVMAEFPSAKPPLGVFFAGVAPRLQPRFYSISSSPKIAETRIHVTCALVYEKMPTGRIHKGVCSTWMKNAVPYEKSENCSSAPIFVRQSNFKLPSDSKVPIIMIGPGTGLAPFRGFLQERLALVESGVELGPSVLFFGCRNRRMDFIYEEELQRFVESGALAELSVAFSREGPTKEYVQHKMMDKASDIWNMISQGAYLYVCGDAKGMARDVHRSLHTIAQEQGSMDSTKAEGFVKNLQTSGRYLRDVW

[2] = molecular target: T2, MpOMT (Mentha x piperita, UniProt Q6VMV8, S142A); conditions: 100 mg/L fed, 12 h, 23 °C; product (2S)-hesperetin
T2 construct: gene OMT4
T2 sequence (Q6VMV8 whole entry S142A): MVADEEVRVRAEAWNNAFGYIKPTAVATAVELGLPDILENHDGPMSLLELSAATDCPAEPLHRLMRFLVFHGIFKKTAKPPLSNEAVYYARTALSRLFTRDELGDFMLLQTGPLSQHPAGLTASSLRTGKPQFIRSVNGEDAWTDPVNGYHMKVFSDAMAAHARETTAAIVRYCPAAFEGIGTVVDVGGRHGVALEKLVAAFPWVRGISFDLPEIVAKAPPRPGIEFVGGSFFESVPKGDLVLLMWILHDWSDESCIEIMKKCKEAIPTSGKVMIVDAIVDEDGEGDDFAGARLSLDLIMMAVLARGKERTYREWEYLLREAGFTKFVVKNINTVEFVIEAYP

[3] = molecular target: T3, MpOMT (Mentha x piperita, UniProt Q6VMV8, F133A); conditions: 100 mg/L fed, 12 h, 23 °C; product (2S)-hesperetin
T3 construct: gene OMT4
T3 sequence (Q6VMV8 whole entry F133A): as the sequence (Q6VMV8 whole entry S142A) above, with F133A, A142S counted along it

Structure (SMILES) | whole-cell conversion, HPLC [1] | whole-cell conversion, HPLC [2] | whole-cell conversion, HPLC [3]
O=C1C[C@@H](c2ccc(O)cc2)Oc2cc(O)cc(O)c21 [(2S)-naringenin] | the one harboring trThF3′H and CPR exhibited the highest (2S)-eriodictyol production | – | –
O=C1C[C@@H](c2ccc(O)c(O)c2)Oc2cc(O)cc(O)c21 [(2S)-eriodictyol] | – | three mutants (F115A, F133A, and S142A), which displayed significantly higher conversion rates | three mutants (F115A, F133A, and S142A), which displayed significantly higher conversion rates
